Measurements taken from PMC3646808, “Aggregate-Reactivation Activity of the Molecular Chaperone ClpB from Ehrlichia chaffeensis” (PLoS ONE, 2013).
Blank lines part the entries; values can stand above or below the compound they belong to.

Tests used:
EcClpB [1] = biological target: T1, EcClpB (Escherichia coli, UniProt P63284); assay: phosphate release ATPase assay; format: biochemical; conditions: 5 mM ATP, 10 mM MgCl2, 100 mM Tris/HCl pH 8.0, 37 °C; basal activity
T1 construct: gene clpB; purified, produced or obtained as previously described; hexamer

EhClpB = biological target: T2, EhClpB (Ehrlichia chaffeensis, UniProt Q2GH96); conditions: 5 mM ATP, 10 mM MgCl2, 100 mM Tris/HCl pH 8.0, 37 °C; basal activity
T2 construct: gene clpB

EcClpB [2] = biological target: T1, EcClpB; assay: filter retention with SDS-PAGE, nucleotide-induced binding to aggregated G6PDH; conditions: 6 mM nucleotide, 20 mM Mg(OAc)2, 50 mM Tris/HCl pH 7.5, 30 °C; indirect read-out
[3] = biological target: ClpB from Ehrlichia chaffeensis (E. chaffeensis); assay: AUC; sedimentation velocity, 48,000 rpm, 20°C, 0.3 mg/ml protein in 50 mM Hepes/KOH pH 7.5, 0.2 M KCl, 20 mM MgCl2, 1 mM EDTA, 2 mM β-mercaptoethanol, with 2 mM ATPγS

T1 sequence (P63284 whole entry): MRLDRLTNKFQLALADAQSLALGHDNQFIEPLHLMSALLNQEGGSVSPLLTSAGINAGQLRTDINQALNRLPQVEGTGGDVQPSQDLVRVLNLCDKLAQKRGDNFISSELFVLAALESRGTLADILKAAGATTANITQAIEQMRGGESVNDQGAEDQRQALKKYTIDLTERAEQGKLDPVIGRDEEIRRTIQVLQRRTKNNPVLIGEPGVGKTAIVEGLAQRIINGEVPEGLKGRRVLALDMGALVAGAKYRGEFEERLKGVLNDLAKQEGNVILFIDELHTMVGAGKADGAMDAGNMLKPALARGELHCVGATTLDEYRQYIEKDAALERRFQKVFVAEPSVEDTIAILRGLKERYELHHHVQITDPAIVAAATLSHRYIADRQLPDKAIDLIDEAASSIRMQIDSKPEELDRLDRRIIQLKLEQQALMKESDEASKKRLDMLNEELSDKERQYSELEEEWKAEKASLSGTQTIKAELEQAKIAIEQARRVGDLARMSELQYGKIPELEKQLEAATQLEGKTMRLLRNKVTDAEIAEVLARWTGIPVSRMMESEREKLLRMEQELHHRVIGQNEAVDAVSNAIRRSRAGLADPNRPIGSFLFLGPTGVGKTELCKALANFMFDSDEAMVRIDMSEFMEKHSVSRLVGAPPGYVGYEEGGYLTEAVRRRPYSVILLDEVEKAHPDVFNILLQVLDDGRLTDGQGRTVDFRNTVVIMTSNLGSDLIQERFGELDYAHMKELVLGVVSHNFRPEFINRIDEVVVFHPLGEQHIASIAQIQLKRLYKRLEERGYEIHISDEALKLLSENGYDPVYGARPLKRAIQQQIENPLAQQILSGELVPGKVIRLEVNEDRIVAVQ
T2 sequence (Q2GH96 entry or part of it): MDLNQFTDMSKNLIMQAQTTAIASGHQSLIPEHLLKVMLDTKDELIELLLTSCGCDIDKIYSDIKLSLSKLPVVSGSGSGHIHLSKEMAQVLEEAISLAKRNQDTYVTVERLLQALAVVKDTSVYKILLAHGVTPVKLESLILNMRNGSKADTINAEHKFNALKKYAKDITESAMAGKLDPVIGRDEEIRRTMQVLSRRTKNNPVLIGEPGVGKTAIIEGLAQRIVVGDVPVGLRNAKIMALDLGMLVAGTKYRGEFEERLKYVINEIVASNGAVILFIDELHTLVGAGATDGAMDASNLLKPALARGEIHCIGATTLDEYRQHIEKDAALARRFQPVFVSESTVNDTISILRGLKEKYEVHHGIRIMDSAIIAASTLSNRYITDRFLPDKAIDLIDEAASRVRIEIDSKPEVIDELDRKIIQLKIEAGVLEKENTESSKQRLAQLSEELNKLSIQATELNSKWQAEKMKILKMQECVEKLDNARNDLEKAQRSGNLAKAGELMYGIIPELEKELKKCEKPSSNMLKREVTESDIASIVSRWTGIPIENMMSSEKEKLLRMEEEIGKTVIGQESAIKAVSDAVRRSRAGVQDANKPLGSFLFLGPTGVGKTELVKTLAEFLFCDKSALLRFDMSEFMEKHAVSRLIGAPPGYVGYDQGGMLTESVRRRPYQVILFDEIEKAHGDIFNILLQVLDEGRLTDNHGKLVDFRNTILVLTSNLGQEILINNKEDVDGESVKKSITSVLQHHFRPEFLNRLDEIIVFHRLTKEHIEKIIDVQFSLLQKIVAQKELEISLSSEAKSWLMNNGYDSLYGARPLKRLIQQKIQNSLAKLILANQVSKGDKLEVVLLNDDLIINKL

Compound: Nc1ncnc2c1ncn2[C@@H]1O[C@H](COP(=O)(O)OP(=O)(O)OP(=O)(O)O)[C@@H](O)[C@H]1O [ATP]
phosphate release ATPase assay (EcClpB [1]): the basal ATPase of EhClpB was similar to that of the purified EcClpB
phosphate release ATPase assay (EhClpB): the basal ATPase of EhClpB was similar to that of the purified EcClpB

Compound: Nc1ncnc2c1ncn2[C@@H]1O[C@H](COP(=O)(O)OP(=O)(O)OP(O)(O)=S)[C@@H](O)[C@H]1O [ATPγS, adenosine-5'-(γ-thio)-triphosphate]
filter retention with SDS-PAGE, nucleotide-induced binding to aggregated G6PDH (EcClpB [2]): only ATPγS induces significant binding of EcClpB to the aggregates

stoichiometry N [3]: 6
Compound: ClpB from Ehrlichia chaffeensis (natural protein)
